Measurements from US6844353B2, “Fungicidal properties of sampangine and its analogs to agriculturally important fungal plant pathogens” (The United States of America as represented by the …, priority 2003, dated 2005).
Like-named read-outs stand apart in the source and are kept apart here.

Legend:
Assay in all cases: 96-well microtiter plate assay, fungal growth inhibition
[1] = tested on: C. gloeosporioides; assay type: cell-based, Colletotrichum gloeosporioides; conditions: for inhibition at 0.3 µM / inhibition at 3 µM / inhibition at 30 µM: Colletotrichum gloeosporioides, read-out: Percent inhibition−Percent Stimulation±SEM; for Percent inhibition−Percent Stimulation±SEM: C. gloeosporioides
Text: (§1) Pathogen production. Isolates of Colletotrichum acutatum Simmonds, Colletotrichum fragariae Brooks, and Colletotrichum gloeosporioides (Penz.) Penz. & Sacc. in Penz. were obtained from B. J. Smith, USDA, ARS, Small Fruit Research Station, Poplarville, Miss. Colletotrichum fragariae (isolate CF63), C. acutatum (isolate CAGoff), and C. gloeosporioides (isolate CG162) were used for all pathogen and bioautography studies. Isolate CF63 is one of the most virulent isolates at infecting strawberry plants and inducing both crown and fruit rot (Smith and Black, 1990). CF63, CAGoff, and CG162 were used as standard test isolates because of our extensive knowledge of these isolates and their known fungicide sensitivity profiles in both bioautography and microtiter formats. The three Colletotrichum species were isolated from strawberry (Fragaria x ananassa Duchesne). Botrytis cinerea Pers.: Fr, was isolated from commercial grape (Vitis vinifera L.) and Fusarium oxysporum Schlechtend: Fr from orchid (Cynoches sp.). Phomopsis viticola (Sacc.) and P. obscurans (Ellis & Everh.) Sutton were from Mike A. Ellis, Ohio State University, Wooster, Ohio. Fungi were grown on potato-dextrose agar (PDA, Difco, Detroit, Mich.) in 9 cm petri dishes and incubated in a growth chamber at 24±2° C. and under cool-white fluorescent lights ([…]·m^−2·sec^−1 light) with 12 hour photoperiod.
(§2) Inoculum preparation. Conidia were harvested from 7-10 day-old cultures by flooding plates with 5 mL of sterile distilled water and dislodging conidia by softly brushing the colonies with an L-shaped glass rod. Conidial suspensions were filtered through sterile miracloth (Calbiochem-Novabiochem Corp., La Jolla, Calif.) to remove mycelia. Conidia concentrations were determined photometrically, from a standard curve based on the percent of transmittance (% T) at 625 nm and suspensions were then adjusted with sterile distilled water to a concentration of 1.0×10^6 conidia/mL.
(§3) Microtiter assay. A standardized 96-well microtiter plate assay developed for discovery of natural product fungicidal agents was used to evaluate naturally occurring antifungal agents from Macaranga monanara. A 96-well microtiter assay was used to determine sensitivity of B. cinerea, C. acutatum, C. fragariae, C. gloeosporioides, F. oxysporum, Phomopsis viticola, and P. obscurans to the various antifungal agents in comparison with known fungicidal standards. Vinclozolin, captan, and thiabendazole, which represent three different modes of action, were used as standards in this experiment. Each fungus was challenged in a dose-response format using test compounds where the final treatment concentrations were 0.3, 3.0 and 30.0 μM. Microtiter plates (Nunc MicroWell, untreated; Roskilde, Denmark) were covered with a plastic lid and incubated in a growth chamber as described previously for fungal growth. Growth was then evaluated by measuring absorbance of each well at 620 nm using a microplate photometer (Packard Spectra Count, Packard Instrument Co., Downers Grove, Ill.). Microtiter plates (Nunc MicroWell, untreated; Roskilde, Denmark) were covered with a plastic lid and incubated in a growth chamber at 24±1° C. and 12 hour photoperiod under 60±5 μmol light. Growth was then evaluated by measuring absorbance of each well at 620 nm using a microplate photometer (Packard Spectra Count, Packard Instrument Co., Downers Grove, Ill.).
(§4) Microbioassy Experimental Design. Chemical sensitivity each of B. cinerea, C. acutatum, C. fragariae, C. gloeosporiodes, F. oxysporum, Phomopsis viticola, and P. obscurans was evaluated using 96-well plate microbioassay format. Each chemical was evaluated in duplicate at each dose (0.3, 3.0 and 30.0 μM). […]

[2] = tested on: C. fragariae; assay type: cell-based, Colletotrichum fragariae; conditions: for inhibition at 0.3 µM / inhibition at 3 µM / inhibition at 30 µM: Colletotrichum fragariae, read-out: Percent inhibition−Percent Stimulation±SEM; for Percent inhibition−Percent Stimulation±SEM: C. fragariae
Text: as §1, §2, §3, §4

[3] = tested on: C. acutatum; assay type: cell-based, Colletotrichum acutatum; conditions: for inhibition at 0.3 µM / inhibition at 3 µM / inhibition at 30 µM: Colletotrichum acutatum, read-out: Percent inhibition−Percent Stimulation±SEM; for Percent inhibition−Percent Stimulation±SEM: C. acutatum
Text: as §1, §2, §3, §4

[4] = tested on: F. oxysporum; assay type: cell-based, Fusarium oxysporum; conditions: for inhibition at 0.3 µM / inhibition at 3 µM / inhibition at 30 µM: Fusarium oxysporum, read-out: Percent inhibition−Percent Stimulation±SEM; for Percent inhibition−Percent Stimulation±SEM: F. oxysporum
Text: as §1, §2, §3, §4

[5] = tested on: B. cinerea; assay type: cell-based, Botrytis cinerea; conditions: for inhibition at 0.3 µM / inhibition at 3 µM / inhibition at 30 µM: Botrytis cinerea, read-out: Percent inhibition−Percent Stimulation±SEM; for Percent inhibition−Percent Stimulation±SEM: B. cinerea
Text: as §1, §2, §3, §4

In the case of Cc1cc(C2CC2)nc(Nc2ccccc2)n1 [Cyprodinil], the inhibition at 0.3 µM ([1]; 48 h) is reported as 84.3 ± 2.3%, the inhibition at 3 µM ([1]; 48 h) is reported as 91.3 ± 1.3% and the inhibition at 30 µM ([1]; 48 h) is reported as 91.1 ± 7%. For the same compound, the inhibition at 0.3 µM ([1]; 72 h) was 55.7 ± 4.6%, the inhibition at 3 µM ([1]; 72 h) was 83.7 ± 1.8% and the inhibition at 30 µM ([1]; 72 h) was 93 ± 0.4%. For the same compound, the inhibition at 0.3 µM ([2]; 48 h) was 98 ± 1.6%, the inhibition at 3 µM ([2]; 48 h) was 91.3 ± 1.3% and the inhibition at 30 µM ([2]; 48 h) was 91.1 ± 7%. For the same compound, the inhibition at 0.3 µM ([2]; 72 h) was 82.6 ± 6.2%, the inhibition at 3 µM ([2]; 72 h) was 83.7 ± 1.8% and the inhibition at 30 µM ([2]; 72 h) was 93 ± 0.4%. The inhibition at 0.3 µM ([3]; 48 h) was 99.8 ± 0.2%, the inhibition at 3 µM ([3]; 48 h) was 98.6 ± 0.6% and the inhibition at 30 µM ([3]; 48 h) was 98.7 ± 0.5%. It also gave an inhibition at 0.3 µM ([3]; 72 h) of 85.1 ± 4.3%, an inhibition at 3 µM ([3]; 72 h) of 99.3 ± 2.2% and an inhibition at 30 µM ([3]; 72 h) of 97.9 ± 0.3%. For the same compound, the inhibition at 0.3 µM ([4]; 48 h) was -5.4 ± 4.8%, the inhibition at 3 µM ([4]; 48 h) was 16.9 ± 5.5% and the inhibition at 30 µM ([4]; 48 h) was 69.1 ± 4.6%. The inhibition at 0.3 µM ([4]; 72 h) was -5.1 ± 2.8%, the inhibition at 3 µM ([4]; 72 h) was 6.2 ± 2.5% and the inhibition at 30 µM ([4]; 72 h) was 31.3 ± 4.9%. The inhibition at 0.3 µM ([5]; 48 h) was 75.3 ± 21%, the inhibition at 3 µM ([5]; 48 h) was 29.4 ± 31.3% and the inhibition at 30 µM ([5]; 48 h) was 2.5 ± 31.6%. The inhibition at 0.3 µM ([5]; 72 h) was 61.3 ± 24.4%, the inhibition at 3 µM ([5]; 72 h) was 51.3 ± 30% and the inhibition at 30 µM ([5]; 72 h) was 27.3 ± 28.2%.

N#CC(CCc1ccc(Cl)cc1)(Cn1cncn1)c1ccccc1 (stereo not drawn) [Fenbucanazole] was tested, and the “Percent inhibition−Percent Stimulation±SEM” value ([1]; 0.3 μM, 48 hrs) was −86.1 ± 1.4%, the “Percent inhibition−Percent Stimulation±SEM” value ([1]; 0.3 μM, 72 hrs) was −59.1 ± 3.6% and the “Percent inhibition−Percent Stimulation±SEM” value ([1]; 3.0 μM, 48 hrs) was −95.0 ± 1.1%. The “Percent inhibition−Percent Stimulation±SEM” value ([1]; 3.0 μM, 72 hrs) was −98.1 ± 0.4%, the “Percent inhibition−Percent Stimulation±SEM” value ([1]; 30 μM, 48 hrs) was −99.0 ± 0.7% and the “Percent inhibition−Percent Stimulation±SEM” value ([1]; 30 μM, 72 hrs) was −99.6 ± 0.2%. The “Percent inhibition−Percent Stimulation±SEM” value ([2]; 0.3 μM, 48 hrs) was −26.8 ± 14.1%, the “Percent inhibition−Percent Stimulation±SEM” value ([2]; 0.3 μM, 72 hrs) was 19.0 ± 7.7% and the “Percent inhibition−Percent Stimulation±SEM” value ([2]; 3.0 μM, 48 hrs) was −37.0 ± 15.3%. The “Percent inhibition−Percent Stimulation±SEM” value ([2]; 3.0 μM, 72 hrs) was 4.7 ± 4.2%, the “Percent inhibition−Percent Stimulation±SEM” value ([2]; 30 μM, 48 hrs) was −99.3 ± 1.1% and the “Percent inhibition−Percent Stimulation±SEM” value ([2]; 30 μM, 72 hrs) was −97.7 ± 0.6%. The “Percent inhibition−Percent Stimulation±SEM” value ([3]; 0.3 μM, 48 hrs) was 13.0 ± 5.8%, the “Percent inhibition−Percent Stimulation±SEM” value ([3]; 0.3 μM, 72 hrs) was 16.3 ± 5.4% and the “Percent inhibition−Percent Stimulation±SEM” value ([3]; 3.0 μM, 48 hrs) was −3.8 ± 4.8%. The “Percent inhibition−Percent Stimulation±SEM” value ([3]; 3.0 μM, 72 hrs) was −89.9 ± 6.8%, the “Percent inhibition−Percent Stimulation±SEM” value ([3]; 30 μM, 48 hrs) was −39.2 ± 3.3% and the “Percent inhibition−Percent Stimulation±SEM” value ([3]; 30 μM, 72 hrs) was −21.7 ± 5.8%. For the same compound, the “Percent inhibition−Percent Stimulation±SEM” value ([4]; 0.3 μM, 48 hrs) was −15.3 ± 2.6%, the “Percent inhibition−Percent Stimulation±SEM” value ([4]; 0.3 μM, 72 hrs) was −10.4 ± 2.7% and the “Percent inhibition−Percent Stimulation±SEM” value ([4]; 3.0 μM, 48 hrs) was −33.1 ± 4.2%. The “Percent inhibition−Percent Stimulation±SEM” value ([4]; 3.0 μM, 72 hrs) was −29.3 ± 2.6%, the “Percent inhibition−Percent Stimulation±SEM” value ([4]; 30 μM, 48 hrs) was −45.5 ± 3.4% and the “Percent inhibition−Percent Stimulation±SEM” value ([4]; 30 μM, 72 hrs) was −44.5 ± 2.5%. For the same compound, the “Percent inhibition−Percent Stimulation±SEM” value ([5]; 0.3 μM, 48 hrs) was −46.0 ± 34.2%, the “Percent inhibition−Percent Stimulation±SEM” value ([5]; 0.3 μM, 72 hrs) was −49.6 ± 24.7% and the “Percent inhibition−Percent Stimulation±SEM” value ([5]; 3.0 μM, 48 hrs) was −35.9 ± 28.3%. For the same compound, the “Percent inhibition−Percent Stimulation±SEM” value ([5]; 3.0 μM, 72 hrs) was −47.0 ± 23.0%, the “Percent inhibition−Percent Stimulation±SEM” value ([5]; 30 μM, 48 hrs) was 17.6 ± 52.2% and the “Percent inhibition−Percent Stimulation±SEM” value ([5]; 30 μM, 72 hrs) was −29.9 ± 24.2%.

Work on CC1(C(=O)Nc2ccc(O)c(Cl)c2Cl)CCCCC1 [Fenhexamid] yielded an inhibition at 0.3 µM ([1]; 48 h) of -21.6 ± 9%, an inhibition at 3 µM ([1]; 48 h) of -32.5 ± 6.4% and an inhibition at 30 µM ([1]; 48 h) of -0.3 ± 3%. It also gave an inhibition at 0.3 µM ([1]; 72 h) of -11.3 ± 5.5%, an inhibition at 3 µM ([1]; 72 h) of -16 ± 2% and an inhibition at 30 µM ([1]; 72 h) of 6.5 ± 4.2%. The inhibition at 0.3 µM ([2]; 48 h) was -30.2 ± 10%, the inhibition at 3 µM ([2]; 48 h) was -13.6 ± 6.3% and the inhibition at 30 µM ([2]; 48 h) was 19.9 ± 3.4%. The inhibition at 0.3 µM ([2]; 72 h) was -12 ± 6.7%, the inhibition at 3 µM ([2]; 72 h) was -9.9 ± 4.3% and the inhibition at 30 µM ([2]; 72 h) was 19.5 ± 5.4%. The inhibition at 0.3 µM ([3]; 48 h) was -21.6 ± 6.7%, the inhibition at 3 µM ([3]; 48 h) was -6.5 ± 4.9% and the inhibition at 30 µM ([3]; 48 h) was 13.8 ± 5.3%. For the same compound, the inhibition at 0.3 µM ([3]; 72 h) was -20.4 ± 5.6%, the inhibition at 3 µM ([3]; 72 h) was -21.8 ± 4.3% and the inhibition at 30 µM ([3]; 72 h) was 1.5 ± 6.7%. For the same compound, the inhibition at 0.3 µM ([4]; 48 h) was 3 ± 4.4%, the inhibition at 3 µM ([4]; 48 h) was 15.3 ± 1.7% and the inhibition at 30 µM ([4]; 48 h) was 28.5 ± 1.3%. The inhibition at 0.3 µM ([4]; 72 h) was -0.1 ± 2.8%, the inhibition at 3 µM ([4]; 72 h) was 3.7 ± 2.6% and the inhibition at 30 µM ([4]; 72 h) was 21.2 ± 2.1%. The inhibition at 0.3 µM ([5]; 48 h) was 82.9 ± 31.5%, the inhibition at 3 µM ([5]; 48 h) was 34.2 ± 29.1% and the inhibition at 30 µM ([5]; 48 h) was 49.2 ± 32.1%. For the same compound, the inhibition at 0.3 µM ([5]; 72 h) was 71.4 ± 24.7%, the inhibition at 3 µM ([5]; 72 h) was 42.7 ± 20.6% and the inhibition at 30 µM ([5]; 72 h) was 40.9 ± 22.6%.
